Experimental data published in patent US10710986B2, “PD-1/PD-L1 inhibitors” (Gilead Sciences, Inc., priority 2018, dated 2020).

Target: PD-1/PD-L1 (Homo sapiens (Human), UniProt Q9NZQ7)
Experiment: PD-1/PD-L1 biochemical protein-protein interaction assay (ALPHA)
Conditions: 0.3 nM His tagged PD-L1, 2.5 nM biotinylated Fc-PD-1, 60 minutes at 25° C., read-out: IC50 PD-L1-PD1

PD-1/PD-L1, sequence (Q9NZQ7 19-238): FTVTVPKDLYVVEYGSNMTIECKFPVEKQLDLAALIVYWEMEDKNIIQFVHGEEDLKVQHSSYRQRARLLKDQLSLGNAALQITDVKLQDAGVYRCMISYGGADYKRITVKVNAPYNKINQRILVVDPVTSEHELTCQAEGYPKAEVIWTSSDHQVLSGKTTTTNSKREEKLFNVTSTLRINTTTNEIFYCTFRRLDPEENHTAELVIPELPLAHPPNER

`COc1nc(-c2cccc(-c3cccc(-c4cnc(CNC(C)(C)CNC(C)=O)c(OC)n4)c3Cl)c2Cl)cnc1CNC[C@@H]1CCC(=O)N1` [compound 375] was tested. Which IC50 did it give?
Its IC50 is 0.459 nM.

For `COc1nc(-c2cccc(-c3cccc(-c4cnc(CN5CCCC5(C)CO)c(OC)n4)c3Cl)c2Cl)cnc1CNC[C@@H]1CCC(=O)N1` (stereo partly drawn) [compound 453], which IC50 is on record?
The IC50 was 0.139 nM.

With `COc1nc(-c2cccc(-c3cccc(-c4cnc5c(CN6CC7(C6)CN(C(C)=O)C7)cn(C)c5n4)c3Cl)c2Cl)cnc1CNC[C@H]1CCC(=O)N1` [compound 604] as the compound, how does the IC50 read?
The IC50 was 0.064 nM.

Which IC50 does the source give for `COc1nc(-c2cccc(-c3cccc(-c4cnc(CNC[C@@H]5CCC(=O)N5)c(OC)n4)c3Cl)c2Cl)ccc1CN1CC[C@](C)(O)C1` [compound 159] here?
Its IC50 is 0.15 nM.

Which IC50 does the source give for `COc1nc(-c2cccc(-c3cccc(-c4cnc(CN[C@H]5C[C@@H](CO)C5)c(OC)n4)c3Cl)c2Cl)cnc1CNC[C@@H]1CCC(=O)N1` [compound 341] here?
The IC50 was 0.094 nM.

For `COc1nc(-c2cccc(-c3cccc(-c4cnc(CN5CC(N6CC(O)C6)C5)c(OC)n4)c3Cl)c2Cl)cnc1CNC[C@@H]1CCC(=O)N1` [compound 348], which IC50 is on record?
The IC50 was 0.138 nM.

Which IC50 does the source give for `COc1nc(-c2cccc(-c3cccc(-c4cnc(CN[C@@](C)(CO)C(=O)O)c(OC)n4)c3Cl)c2Cl)cnc1CNC[C@@H]1CCC(=O)N1` [compound 553] here?
The IC50 was 0.118 nM.

With `CN(C)c1nc(-c2cccc(-c3cccc(-c4cnc(CN5CC6(CNC(=O)C6)C5)c(Cl)n4)c3Cl)c2Cl)cnc1CN1CC2(CNC(=O)C2)C1` [compound 102] as the compound, how does the IC50 read?
The IC50 was 0.223 nM.

With `CNC(=O)C1CN(Cc2ncc(-c3cccc(-c4cccc(-c5cnc(CNC[C@@H]6CCC(=O)N6)c(OC)n5)c4Cl)c3Cl)nc2OC)C1` [compound 558] as the compound, how does the IC50 read?
Its IC50 is 0.064 nM.

With `COc1nc(-c2cccc(-c3cccc(-c4cnc(CNCC[C@@H]5CNC(=O)C5)c(OC)n4)c3Cl)c2Cl)cnc1CNCC[C@@H]1CNC(=O)C1` [compound 538] as the compound, how does the IC50 read?
The IC50 was 0.199 nM.

How did the IC50 turn out when `COc1nc(-c2cccc(-c3cccc(-c4cnc(CNCC56CC(O)(C5)C6)c(OC)n4)c3Cl)c2Cl)cnc1CNC[C@@H]1CCC(=O)N1` [compound 545] was run?
Its IC50 is 0.214 nM.

How did the IC50 turn out when `COc1nc(-c2cccc(-c3cccc(-c4cnc(CNC[C@@H]5CCC(=O)N5)c(OC)n4)c3Cl)c2Cl)cnc1CNC[C@H]1CCN1` [compound 254] was run?
The IC50 was 0.11 nM.

With `COc1nc(-c2cccc(-c3cccc(-c4cnc(CN5C[C@H](O)C[C@@H](F)C5)c(OC)n4)c3Cl)c2Cl)cnc1CNC[C@@H]1CCC(=O)N1` [compound 264] as the compound, how does the IC50 read?
The IC50 was 0.407 nM.

`COc1nc(-c2cccc(-c3cccc(-c4cnc(CN[C@H]5C[C@H](C(N)=O)C5)c(OC)n4)c3Cl)c2Cl)cnc1CNC[C@@H]1CCC(=O)N1` [compound 465] was tested. Which IC50 did it give?
The IC50 was 0.158 nM.

Which IC50 does the source give for `COc1nc(-c2cccc(-c3cccc(-c4cnc(CN5C[C@@H](N)CCC5=O)c(OC)n4)c3Cl)c2Cl)cnc1CNC[C@@H]1CCC(=O)N1` [compound 36] here?
The IC50 was 1.29 nM.

With `COc1nc(-c2cccc(-c3cccc(-c4cnc(C5=NCCN5)c(OC)n4)c3Cl)c2Cl)ccc1CN1CC(C)(O)C1` [compound 642] as the compound, how does the IC50 read?
The IC50 was 0.064 nM.

How did the IC50 turn out when `COc1nc(-c2cccc(-c3cccc(-c4cnc(CNC[C@@H]5CCC(=O)N5)c(OC)n4)c3Cl)c2Cl)ccc1CNCc1nc(=O)o[nH]1` [compound 161] was run?
Its IC50 is 0.167 nM.

`CNS(=O)(=O)CCNCc1ncc(-c2cccc(-c3cccc(-c4cnc(CNC[C@@H]5CCC(=O)N5)c(OC)n4)c3Cl)c2Cl)nc1OC` [compound 572] was tested. Which IC50 did it give?
The IC50 was 0.064 nM.

Which IC50 does the source give for `COc1nc(-c2cccc(-c3cccc(-c4cnc(CNC[C@@H]5CCC(=O)N5)c(OC)n4)c3Cl)c2Cl)ccc1CNC[C@@H]1CCC(=O)N1` [compound 126, (S)-5-((((6-(2,2′-dichloro-3′-(6-methoxy-5-(((((S)-5-oxopyrrolidin-2-yl)methyl)amino)methyl)pyrazin-2-yl)-[1,1′-biphenyl]-3-yl)-2-methoxypyridin-3-yl)methyl)amino)methyl)pyrrolidin-2-one] here?
Its IC50 is 0.272 nM.

`COc1nc(-c2cccc(-c3cccc(-c4cnc(CN5CC(c6ccccc6)C5)c(OC)n4)c3Cl)c2Cl)cnc1CNC[C@@H]1CCC(=O)N1` [compound 350] was tested. Which IC50 did it give?
Its IC50 is 0.737 nM.

`COc1nc(-c2cccc(-c3cccc(-c4cnc(CN[C@@H](C)[C@H]5CCC(=O)N5)c(OC)n4)c3Cl)c2Cl)cnc1CNC[C@@H]1CCC(=O)N1` [compound 598] was tested. Which IC50 did it give?
Its IC50 is 0.178 nM.

With `COc1nc(-c2cccc(-c3cccc(-c4cnc(CN5CC(C)(CO)C5)c(OC)n4)c3Cl)c2Cl)cnc1CNC[C@@H]1CCC(=O)N1` [compound 175] as the compound, how does the IC50 read?
The IC50 was 0.11 nM.

For `COc1nc(-c2cccc(-c3cccc(-c4cnc(CNC(CO)c5nn[nH]n5)c(OC)n4)c3Cl)c2Cl)cnc1CNC[C@@H]1CCC(=O)N1` (stereo partly drawn) [compound 38], which IC50 is on record?
Its IC50 is 0.66 nM.

`COc1nc(-c2cccc(-c3cccc(-c4cnc(CNC[C@@H]5CCC(=O)N5)c(OC)n4)c3Br)c2Br)cnc1CNC[C@@H]1CCC(=O)N1` [compound 113] was tested. Which IC50 did it give?
Its IC50 is 0.211 nM.

How did the IC50 turn out when `COc1nc(-c2cccc(-c3cccc(-c4cnc(CNC[C@H]5CCC(=O)N5)c(OC)n4)c3Br)c2Cl)cnc1CNC[C@H]1CCC(=O)N1` [compound 392] was run?
The IC50 was 0.246 nM.

For `COc1nc(-c2cccc(-c3cccc(-c4cnc(CN5CC(C(C)(C)O)C5)c(OC)n4)c3Cl)c2Cl)cnc1CNC[C@@H]1CCC(=O)N1` [compound 484], which IC50 is on record?
The IC50 was 0.122 nM.

Which IC50 does the source give for `COc1nc(-c2cccc(-c3cccc(-c4cnc(CN5CC6(CCC(=O)N6)C5)c(OC)n4)c3Cl)c2Cl)cnc1CNC[C@@H]1CCC(=O)N1` [compound 371] here?
Its IC50 is 0.213 nM.

With `Cc1nc(-c2cccc(-c3cccc(-c4cnc(CN5CC6(CCC(=O)N6)C5)c(C)n4)c3Cl)c2Cl)cnc1CN1CC2(CCC(=O)N2)C1` [compound 95] as the compound, how does the IC50 read?
The IC50 was 0.233 nM.

For `COc1nc(-c2cccc(-c3cccc(-c4cc(C)c(CN5CC6(CCC(=O)N6)C5)c(OC)n4)c3F)c2Cl)cnc1CN1CC2(CCC(=O)N2)C1` [compound 650], which IC50 is on record?
Its IC50 is 0.064 nM.

Which IC50 does the source give for `COc1nc(-c2cccc(-c3cccc(-c4cnc(CN5CC(N6CCOCC6)C5)c(OC)n4)c3Cl)c2Cl)cnc1CNC[C@@H]1CCC(=O)N1` [compound 351] here?
The IC50 was 0.283 nM.

`CNc1nc(-c2cccc(-c3cccc(-c4cnc(CN5CC6(CCC(=O)N6)C5)c(OC)n4)c3Cl)c2Cl)cnc1CN1CC2(CCC(=O)N2)C1` [compound 62] was tested. Which IC50 did it give?
Its IC50 is 0.16 nM.

With `CNc1nc(-c2cccc(-c3cccc(-c4cnc(CN5CCCC5)c(NC)n4)c3Cl)c2Cl)cnc1CN1CCCC1` [compound 70] as the compound, how does the IC50 read?
The IC50 was 0.784 nM.

How did the IC50 turn out when `COc1nc(-c2cccc(-c3cccc(-c4cnc(CN5CCCC(F)(F)C5)c(OC)n4)c3Cl)c2Cl)cnc1CNC[C@@H]1CCC(=O)N1` [compound 271] was run?
Its IC50 is 1.7 nM.

With `COc1nc(-c2cccc(-c3cccc(-c4cnc(CNC5CC5)c(OC)n4)c3Cl)c2Cl)cnc1CNC[C@@H]1CCC(=O)N1` [compound 184] as the compound, how does the IC50 read?
The IC50 was 0.763 nM.

Which IC50 does the source give for `CSc1nc(-c2cccc(-c3cccc(-c4cnc(CN5CC6(CCC(=O)N6)C5)c(SC)n4)c3Cl)c2Cl)cnc1CN1CC2(CCC(=O)N2)C1` [compound 90] here?
Its IC50 is 0.156 nM.

Which IC50 does the source give for `COc1nc(-c2cccc(-c3cccc(-c4cnc(CN5C[C@H](O)C[C@H]5CO)c(OC)n4)c3Cl)c2Cl)cnc1CNC[C@@H]1CCC(=O)N1` [compound 423] here?
The IC50 was 0.237 nM.

Which IC50 does the source give for `COc1nc(-c2cccc(-c3cccc(-c4cnc(CN5[C@@H](C)COC[C@@H]5C)c(OC)n4)c3Cl)c2Cl)cnc1CNC[C@@H]1CCC(=O)N1` [compound 332] here?
The IC50 was 0.743 nM.

How did the IC50 turn out when `COc1nc(-c2cccc(-c3cccc(-c4cnc(CN[C@@H]5CCOC[C@H]5C)c(OC)n4)c3Cl)c2Cl)cnc1CNC[C@@H]1CCC(=O)N1` [compound 223] was run?
Its IC50 is 0.584 nM.

For `CNc1nc(-c2cccc(-c3cccc(-c4cnc(CN(C)C[C@@H]5CCC(=O)N5)c(NC)n4)c3Cl)c2Cl)cnc1CN(C)C[C@@H]1CCC(=O)N1` [compound 319], which IC50 is on record?
Its IC50 is 3.87 nM.

How did the IC50 turn out when `COc1nc(-c2cccc(-c3cccc(-c4ccc(CNC[C@@H]5CCC(=O)N5)c(C#N)c4)c3Cl)c2Cl)cnc1CNC[C@@H]1CCC(=O)N1` [compound 152] was run?
Its IC50 is 0.073 nM.

`COc1nc(-c2cccc(-c3cccc(-c4cnc(CNC[C@@H]5CCC(=O)N5)c(OC)n4)c3Cl)c2Cl)cnc1CNC[C@H]1CNC(=O)C1` [compound 481] was tested. Which IC50 did it give?
The IC50 was 0.227 nM.

`COC[C@@H]1CCCN1Cc1ncc(-c2cccc(-c3cccc(-c4cnc(CNC[C@@H]5CCC(=O)N5)c(OC)n4)c3Cl)c2Cl)nc1OC` [compound 22] was tested. Which IC50 did it give?
Its IC50 is 0.506 nM.

With `COc1nc(-c2cccc(-c3cccc(-c4cnc(CN5CC[C@H](O)C5)c(OC)n4)c3Cl)c2Cl)cnc1CN` [compound 586] as the compound, how does the IC50 read?
The IC50 was 0.29 nM.

`COc1nc(-c2cccc(-c3cccc(-c4cnc(CNC5CCN(C(C)=O)C5)c(OC)n4)c3Cl)c2Cl)cnc1CNC[C@H]1CCC(=O)N1` (stereo partly drawn) [compound 194] was tested. Which IC50 did it give?
The IC50 was 0.149 nM.

Which IC50 does the source give for `CCn1cc(CN2CC3(C2)CN(C(C)=O)C3)c2ncc(-c3cccc(-c4cccc(-c5cnc(CN6CC7(C6)CN(C(C)=O)C7)c(OC)n5)c4Cl)c3Cl)nc21` [compound 608] here?
The IC50 was 0.064 nM.

With `COc1nc(-c2cccc(-c3cccc(-c4cnc(CN5CC[C@@H](C(N)=O)C5)c(OC)n4)c3Cl)c2Cl)cnc1CN1CC[C@@H](C(N)=O)C1` [compound 532] as the compound, how does the IC50 read?
The IC50 was 0.273 nM.

For `CNc1nc(-c2cccc(-c3cccc(-c4cnc(CNC[C@H]5C[C@H](O)C5)c(NC)n4)c3Cl)c2Cl)cnc1CNC[C@H]1C[C@H](O)C1` [compound 57], which IC50 is on record?
The IC50 was 8.78 nM.

`COc1nc(-c2cccc(-c3cccc(-c4cnc(CNC[C@@H]5CCC(=O)N5)c(OC)n4)c3Cl)c2Cl)cnc1CNCCN1CCNC1=O` [compound 211] was tested. Which IC50 did it give?
Its IC50 is 0.095 nM.

Which IC50 does the source give for `COc1nc(-c2cccc(-c3cccc(-c4cnc(CNC(C)(C)C(F)F)c(OC)n4)c3Cl)c2Cl)cnc1CNC[C@@H]1CCC(=O)N1` [compound 181] here?
Its IC50 is 1.51 nM.

How did the IC50 turn out when `Cc1nc(-c2cccc(-c3cccc(-c4cnc(CN5CC6(CNC(=O)C6)C5)c(C)n4)c3Cl)c2Cl)cnc1CN1CC2(CNC(=O)C2)C1` [compound 94] was run?
Its IC50 is 0.862 nM.

`COc1nc(-c2cccc(-c3cccc(-c4cnc(CN5CC6(CNC(=O)C6)C5)c(OC)n4)c3Cl)c2Cl)ccc1C1=NCCN1` [compound 114] was tested. Which IC50 did it give?
Its IC50 is 0.064 nM.

Which IC50 does the source give for `COc1nc(-c2cccc(-c3cccc(-c4cnc(CN5C[C@H](O)[C@@H](F)C5)c(OC)n4)c3Cl)c2Cl)cnc1CNC[C@@H]1CCC(=O)N1` [compound 265] here?
Its IC50 is 0.225 nM.

`COc1nc(-c2cccc(-c3cccc(-c4cnc(CNC[C@@H]5CCC(=O)N5)c(OC)n4)c3Cl)c2Cl)cnc1CNC[C@@H]1CNC(=O)C1` [compound 435] was tested. Which IC50 did it give?
Its IC50 is 0.064 nM.

Which IC50 does the source give for `COC[C@@H]1C[C@H](OC)CN1Cc1ncc(-c2cccc(-c3cccc(-c4cnc(CNC[C@@H]5CCC(=O)N5)c(OC)n4)c3Cl)c2Cl)nc1OC` [compound 530] here?
Its IC50 is 0.212 nM.
